Assay results published in patent publication US11369565B2, “Amino-pyrimidine skeletal muscle modulators” (Cytokinetics, Inc., priority 2010, dated 2022).

What follows are compounds tested on rabbit skeletal myofibrils (approximately 90% fast fibers) (assay: Activation of fast skeletal myofibrils (PUMA coupled-enzyme ATPase assay at pCa25)). Settings: concentration at which the compound increased the enzymatic activity by 40%; calcium at pCa25; PM12 buffer pH 6.8.
Type: biochemical
Procedure, shortened: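 In pH 6.8 PM12 buffer (12 mM Pipes, 2 mM MgCl2, 1 mM DTT), ADP from myosin regenerated via pyruvate kinase/lactate dehydrogenase, with absorbance change at 340 nm from NADH oxidation as read-out. Calcium set at pCa25; Triton-washed rabbit skeletal myofibrils (about 90% fast fibres) used.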

| Mean AC1.4 | SMILES |
| --- | --- |
| D (D=>20 uM) | CN(C(=O)c1cnc(NCC2(c3ncccc3F)CCC2)nc1)c1nccs1 [[2-({[(3-fluoro(2-pyridyl))cyclobutyl)]methyl}amino) pyrimidin-5-yl]-N-methyl-N-(1,3-thiazol-2-yl)carboxamide] |
| D (D=>20 uM) | Cn1nccc1NC(=O)c1cnc(NCC2(c3ncccc3F)CCC2)nc1 [[2-({[(3-fluoro(2-pyridyl))cyclobutyl]methyl)amino)pyrimidin-5-yl]-N-(1-methylpyrazol-5-yl)carboxamide] |
| D (D=>20 uM) | O=C(NCCO)c1cnc(NCC2(c3ncccc3F)CCC2)nc1 [[2-({[(3-fluoro(2-pyridyl))cyclobutyl]methyl}amino)pyrimdin-5-yl]-N-(2-hydroxyethyl)carboxamide] |
| D (D=>20 uM) | O=C(Nc1ccccc1)c1ccnc(NCC2(c3ncccc3F)CCC2)n1 [[2-({[(3-fluoro(2-pyridyl))cyclobutyl]methyl}amino)pyrimidin-4-yl]-N-benzamide] |
| D (D=>20 uM) | CN(C(=O)c1ccnc(NCC2(c3ncccc3F)CCC2)n1)c1ccccc1 [[2-({[(3-fluoro(2-pyridyl))cyclobutyl]methyl}amino)pyrimidin-4-yl]-N-methyl-N-benzamide] |
| B (B=1-10 uM) | O=C(Nc1nncs1)c1cnc(NCC2(c3ncccc3F)CCC2)nc1 [[2-({[(3-fluoro(2-pyridyl))cyclobutyl]methyl}amino)pyrimidin-5-yl]-N-(1,3,4-thiadiazol-2-yl)carboxamide] |
| B (B=1-10 uM) | O=C(Nc1nccs1)c1cnc(NCC2(c3ncccc3F)CCC2)nc1 [[2-({[(3-fluoro(2-pyridyl))cyclobutyl]methyl}amino)pyrimidin-5-yl]-N-(1,3-thiazol-2-yl)carboxamide] |
| D (D=>20 uM) | O=C(Nc1ccccc1F)c1cnc(NCC2(c3ncccc3F)CCC2)nc1 [[2-({[(3-fluoro(2-pyridyl))cyclobutyl]methyl}amino)pyrimidin-5-yl]-N-(2-fluorophenyl)carboxamide] |
| D (D=>20 uM) | O=C(Nc1cccc(F)c1)c1cnc(NCC2(c3ncccc3F)CCC2)nc1 [[2-({[(3-fluoro(2-pyridyl))cyclobutyl]methyl}amino)pyrimidin-5-yl]-N-(3-fluorophenyl)carboxamide] |
| D (D=>20 uM) | Cc1cc(NC(=O)c2cnc(NCC3(c4ncccc4F)CCC3)nc2)[nH]n1 [[2-({[(3-fluoro(2-pyridyl))cyclobutyl]methyl}amino)pyrimidin-5-yl]-N-(3-methylpyrazol-5-yl)carboxamide] |
| C (C=10-20 uM) | O=C(Nc1cccnc1)c1cnc(NCC2(c3ncccc3F)CCC2)nc1 [[2-({[(3-fluoro(2-pyridyl))cyclobutyl]methyl}amino)pyrimidin-5-yl]-N-(3-pyridyl)carboxamide] |
| D (D=>20 uM) | O=C(Nc1ccc(F)cc1)c1cnc(NCC2(c3ncccc3F)CCC2)nc1 [[2-({[(3-fluoro(2-pyridyl))cyclobutyl]methyl}amino)pyrimidin-5-yl]-N-(4-fluorophenyl)carboxamide] |
| B (B=1-10 uM) | O=C(Nc1ccncc1)c1cnc(NCC2(c3ncccc3F)CCC2)nc1 [[2-({[(3-fluoro(2-pyridyl))cyclobutyl]methyl}amino)pyrimidin-5-yl]-N-(4-pyridyl)carboxamide] |
| D (D=>20 uM) | COc1ccc(NC(=O)c2cnc(NCC3(c4ncccc4F)CCC3)nc2)cn1 [[2-({[(3-fluoro(2-pyridyl))cyclobutyl]methyl}amino)pyrimidin-5-yl]-N-(6-methoxy(3-pyridyl))carboxamide] |
| D (D=>20 uM) | CS(=O)(=O)NCCNC(=O)c1cnc(NCC2(c3ncccc3F)CCC2)nc1 [[2-({[(3-fluoro(2-pyridyl))cyclobutyl]methyl}amino)pyrimidin-5-yl]-N-[(methylsulfonyl)amino]ethyl} carboxamide] |
| C (C=10-20 uM) | O=C(Nc1ccccc1)c1cnc(NCC2(c3ncccc3F)CCC2)nc1 [[2-({[(3-fluoro(2-pyridyl))cyclobutyl]methyl}amino)pyrimidin-5-yl]-N-benzamide] |
| B (B=1-10 uM) | O=C(Nc1ccon1)c1cnc(NCC2(c3ncccc3F)CCC2)nc1 [[2-({[(3-fluoro(2-pyridyl))cyclobutyl]methyl}amino)pyrimidin-5-yl]-N-isoxazol-3-ylcarboxamide] |
| D (D=>20 uM) | CNC(=O)c1cnc(NCC2(c3ncccc3F)CCC2)nc1 [[2-({[(3-fluoro(2-pyridyl))cyclobutyl]methyl}amino)pyrimidin-5-yl]-N-methylcarboxamide] |
| C (C=10-20 uM) | O=C(Nc1ccn[nH]1)c1cnc(NCC2(c3ncccc3F)CCC2)nc1 [[2-({[(3-fluoro(2-pyridyl))cyclobutyl]methyl}amino)pyrimidin-5-yl]-N-pyrazol-5-ylcarboxamide] |
| D (D=>20 uM) | COc1ncc(-c2cnc(NC[C@]3(c4ncccc4F)C[C@H](F)C3)nc2)c(OC)n1 [[5-(2,4-dimethoxypyrimidin-5-yl)pyrimidin-2-yl]{[3-fluoro-1-(3-fluoro(2-pyridyl))cyclobutyl]methyl}amine] |

| Mean AC1.4 | SMILES |
| --- | --- |
| D (D=>20 uM) | COc1cc(-c2cnc(NC[C@]3(c4ncccc4F)C[C@H](F)C3)nc2)nc(OC)n1 [[5-(2,6-dimethoxypyrimidin-4-yl)pyrimidin-2-yl]{[3-fluoro-1-(3-fluoro(2-pyridyl))cyclobutyl]methyl}amine] |
| C (C=10-20 uM) | Cc1nc(N)ncc1-c1cnc(NC[C@]2(c3ncccc3F)C[C@H](F)C2)nc1 [[5-(2-amino-4-methylpyrimidin-5-yl)pyrimidin-2-yl]{[3-fluoro-1-(3-fluoro(2-pyridyl))cyclobutyl]methyl}amine] |
| B (B=1-10 uM) | Nc1ncc(F)c(-c2cnc(NC[C@]3(c4ncccc4F)C[C@H](F)C3)nc2)n1 [[5-(2-amino-5-fluoropyrimidin-4-yl)pyrimidin-2-yl]{[3-fluoro-1-(3-fluoro(2-pyridyl))cyclobutyl]methyl}amine] |
| D (D=>20 uM) | Cc1cnc(N)nc1-c1cnc(NC[C@]2(c3ncccc3F)C[C@H](F)C2)nc1 [[5-(2-amino-5-methylpyrimidin-4-yl)pyrimidin-2-yl]{[3-fluoro-1-(3-fluoro(2-pyridyl))cyclobutyl]methyl}amine] |
| C (C=10-20 uM) | Nc1nccc(-c2cnc(NC[C@]3(c4ncccc4F)C[C@H](F)C3)nc2)n1 [[5-(2-aminopyrimidin-4-yl)pyrimidin-2-yl]{[3-fluoro-1-(3-fluoro(2-pyridyl))cyclobutyl]methyl)amine] |
| B (B=1-10 uM) | Nc1ncc(-c2cnc(NC[C@]3(c4ncccc4F)C[C@H](F)C3)nc2)cn1 [[5-(2-aminopyrimidin-5-yl)]pyrimidin-2-yl]{[3-fluoro-1-(3-fluoro(2-pyridyl))cyclobutyl]methyl}amine] |
| D (D=>20 uM) | CC(C)(Nc1ncc(-c2cnc(N)nc2)cn1)c1ncccc1F [[5-(2-aminopyrimidin-5-yl)pyrimidin-2-yl][1-(3-fluoro(2-pyridyl))-isopropyl]amine] |
| A (A=<1 uM) | CC(C)(Nc1ncc(-c2ccc3[nH]nc(N)c3c2)cn1)c1ncccc1F [[5-(3-amino(1H-indazol-5-yl))pyrimidin-2-yl][1-(3-fluoro(2-pyridyl))-isopropyl]amine] |
| A (A=<1 uM) | CC(C)(CNc1ncc(-c2ccc3[nH]nc(N)c3c2)cn1)c1ccc(F)cc1 [[5-(3-amino(1H-indazol-5-yl))pyrimidin-2-yl][2-(4-fluorophenyl)-2-methylpropyl]amine] |
| B (B=1-10 uM) | CC(C)(C)Nc1ncc(-c2ccc3[nH]nc(N)c3c2)cn1 [[5-(3-amino(1H-indazol-5-yl))pyrimidin-2-yl]tert-butyl)amine] |
| B (B=1-10 uM) | Nc1cnc(-c2cnc(NC[C@]3(c4ncccc4F)C[C@H](F)C3)nc2)cn1 [[5-(5-aminopyrazin-2-yl)pyrimidin-2-yl]{[3-fluoro-1-(3-fluoro(2-pyridyl))cyclobutyl]methyl}amine] |
| B (B=1-10 uM) | Nc1cncc(-c2cnc(NC[C@]3(c4ncccc4F)C[C@H](F)C3)nc2)n1 [[5-(6-aminopyrazin-2-yl)pyrimidin-2-yl]{[3-fluoro-1-(3-fluoro(2-pyridyl))cyclobutyl]methyl}amine] |
| B (B=1-10 uM) | Nc1ccc(-c2cnc(NC[C@]3(c4ncccc4F)C[C@H](F)C3)nc2)nn1 [[5-(6-aminopyridazin-3-yl)pyrimidin-2-yl]{[3-fluoro-1-fluoro(2-pyridyl))cyclobutyl]methyl}amine] |
| B (B=1-10 uM) | Fc1cc2[nH]ncc2cc1-c1cnc(NC2(c3ncccc3F)CCC2)nc1 [[5-(6-fluoro(1H-indazol-5-yl))pyrimidin-2-yl][(3-fluoro(2-pyridyl))cyclobutyl]amine] |
| D (D=>20 uM) | Fc1cccnc1C1(Nc2nccc(C(F)(F)F)n2)CCC1 [[(3-fluoro(2-pyridyl))cyclobutyl][4-(trifluoromethyl)pyrimidin-2-yl]amine] |
| D (D=>20 uM) | Fc1cccnc1C1(Nc2ncc3ccccc3n2)CCC1 [[(3-fluoro(2-pyridyl))cyclobutyl]quinazolin-2-ylamine] |
| C (C=10-20 uM) | Fc1ccc(C2(Nc3nccc(C(F)(F)F)n3)CCC2)cc1 [[(4-fluorophenyl)cyclobutyl][4-(trifluoromethyl)pyrimidin-2-yl]amine] |
| D (D=>20 uM) | Fc1ccc(C2(Nc3ncc4cn[nH]c4n3)CCC2)cc1 [[(4-fluorophenyl)cyclobutyl]pyrazolo[5,4-d]pyrimidin-6-ylamine] |
| D (D=>20 uM) | CCOC(=O)c1cnn(-c2cnc(NCC3(c4ncccc4F)CCC3)nc2)c1 [ethyl 1-[2-({[(3-fluoro-2-pyridyl)cyclobutyl]methyl}amino)pyrimidin-5-yl] pyrazole-4-carboxylate] |
| D (D=>20 uM) | CCOC(=O)c1cc2cnc(NCC3(c4ncccc4F)CCC3)nc2s1 [ethyl 2-({[(3-fluoro-2-pyridyl)cyclobutyl]methyl}amino) thiopheno[2,3-d]pyrimidine-6-carboxylate] |
